# Laboratory results taken from patent publication US4820695A, “C-20-dihydro-deoxy-(cyclic amino)-derivatives of macrolide antibiotics” (priority 1987, dated 1989).
# Read-outs that look alike come from different tables or passages of the source.
# Key:
# [1] = test system: Escherichia coli TEM; assay: MIC, standard agar-dilution assay (Table IX); assay type: cell-based; details: read-out: MIC
# [2] = test system: Staphylococcus aureus; assay: MIC, broth-dilution microtiter test (Table X); assay type: cell-based; details: read-out: MIC
# Source text: (§1) The MIC's in Table X were obtained using conventional broth-dilution microtiter tests.
# [3] = test system: Mycoplasma hyopneumoniae S5972; assay: MIC, broth-dilution microtiter test (Table X); assay type: cell-based; details: Mesomycoplasma hyopneumoniae, read-out: MIC
# Source text: as §1
# [4] = test system: Mycoplasma hyorhinis 29E; assay: MIC, broth-dilution microtiter test (Table X); assay type: cell-based; details: read-out: MIC
# Source text: as §1
# [5] = test system: Pasteurella multocida 60A; assay: MIC, broth-dilution microtiter test (Table X); assay type: cell-based; details: Avian isolate, read-out: MIC
# Source text: as §1
# [6] = test system: Pasteurella multocida 17E; assay: MIC, broth-dilution microtiter test (Table X); assay type: cell-based; details: Bovine isolate, read-out: MIC
# Source text: as §1
# [7] = test system: Mycoplasma gallisepticum 29C; assay: MIC, broth-dilution microtiter test (Table X); assay type: cell-based; details: Mycoplasmoides gallisepticum, read-out: MIC
# Source text: as §1
# [8] = test system: Pasteurella hemolytica 22C; assay: MIC, broth-dilution microtiter test (Table X); assay type: cell-based; details: read-out: MIC
# Source text: as §1
# [9] = test system: Mycoplasma synoviae 40A; assay: MIC, broth-dilution microtiter test (Table X); assay type: cell-based; details: Mycoplasmopsis synoviae, read-out: MIC
# Source text: as §1
# [10] = test system: Streptococcus sp. 19F; assay: MIC, broth-dilution microtiter test (Table X); assay type: cell-based; details: read-out: MIC
# Source text: as §1
# [11] = test system: Haemophilus influenzae 76; assay: MIC, standard agar-dilution assay (Table IX); assay type: cell-based; details: Haemophilus influenzae 76, Ampicillin-resistant strain, read-out: MIC
# [12] = test system: Streptococcus Group D X66; assay: MIC, standard agar-dilution assay (Table IX); assay type: cell-based; details: read-out: MIC
# [13] = Titratable groups in 66% aqueous DMF (Tables XIV-XVI); assay type: physicochemical
# Source text: ^c Run in 66% aqueous DMF
# ^d Run in 66% aqueous DMF
# [14] = test system: Escherichia coli N10; assay: MIC, standard agar-dilution assay (Table IX); assay type: cell-based; details: read-out: MIC
# [15] = test system: Escherichia coli EC14; assay: MIC, standard agar-dilution assay (Table IX); assay type: cell-based; details: read-out: MIC
# [16] = test system: Streptococcus Group D 2041; assay: MIC, standard agar-dilution assay (Table IX); assay type: cell-based; details: GROUPD2041, read-out: MIC
# [17] = test system: Staphylococcus aureus S13E; assay: MIC, standard agar-dilution assay (Table IX); assay type: cell-based; details: Staphylococcus aureus, S13E
# [18] = test system: Klebsiella X26; assay: MIC, standard agar-dilution assay (Table IX); assay type: cell-based; details: read-out: MIC
# [19] = test system: Streptococcus pneumoniae Park I; assay: MIC, standard agar-dilution assay (Table IX); assay type: cell-based; details: Streptococcus pneumoniae Park I; agar-dilution; read-out: MIC
# [20] = test system: Streptococcus pyogenes C203; assay: ED50 in mice experimentally infected with S. pyogenes C203 (Table XI); assay type: in vivo; details: Streptococcus pyogenes, doses given 1 and 4 hours postinfection, read-out: ED50
# Outline: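 Mice infected with S. pyogenes C203 received two doses of compound, 1 and 4 h post-infection. ED50 is the dose in mg/kg (per dose, ×2) protecting 50% of animals.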
# [21] = test system: Pasteurella multocida; assay: Pasteurella infection in one-day-old chicks, medicated drinking water (Table XIII); assay type: in vivo; details: Administered in the available drinking water at 2 g/gal
# Protocol: Many of the C-20 modified derivatives of this invention have also shown in vivo antibacterial activity against infections induced by gram-negative bacteria. Tables XII and XIII summarize the results of tests in which illustrative compounds were evaluated against a Pasteurella infection in one-day-old chicks. The compounds were administered parenterally or orally after challenge of the chicks with Pasteurella multocida (0.1 ml of a 10^-4 dilution of a twenty-hour tryptose broth culture of an avian P. multocida given subcutaneously). In these tests, unless indicated otherwise, all non-medicated infected chicks died within 24 hours of Pasteurella challenge. In the tests summarized in Table XII, the compounds were administered by subcutaneous injection at a dosage of 30 mg/kg, 1 and 4 hours post-challenge of the chicks with P. multocida. In the tests summarized in Table XIII the compounds were administered in medicated drinking water (at a level of 2 g/gal) available from 4 to 20 hours prior to challenge of the chicks with P. multocida and during the 3 -day test period.
# ^a Administered in the available drinking water at a concentration of […]
# [22] = test system: Staphylococcus epidermidis 222; assay: MIC, standard agar-dilution assay (Table IX); assay type: cell-based; details: read-out: MIC
# [23] = test system: Staphylococcus aureus X400; assay: MIC, standard agar-dilution assay (Table IX); assay type: cell-based; details: Staphylococcus aureus X400, Methicillin-resistant strain, read-out: MIC
# [24] = test system: Streptococcus pyogenes C203; assay: MIC, standard agar-dilution assay (Table IX); assay type: cell-based; details: read-out: MIC
# [25] = test system: Staphyloccus aureus X1.1; assay: MIC, standard agar-dilution assay (Table IX); assay type: cell-based, Staphylococcus aureus; details: Staphylococcus aureus, read-out: MIC
# [26] = test system: Staphylococcus aureus V41; assay: MIC, standard agar-dilution assay (Table IX); assay type: cell-based; details: Staphylococcus aureus V41, Penicillin-resistant strain, read-out: MIC
# [27] = test system: Haemophilus influenzae C.L.; assay: MIC, standard agar-dilution assay (Table IX); assay type: cell-based; details: Ampicillin-sensitive strain, read-out: MIC
# [28] = test system: Pasteurella multocida; assay: Pasteurella infection in one-day-old chicks, subcutaneous administration (Table XII); assay type: in vivo; details: Administered subcutaneously, 30 mg/kg × 2, 1 and 4 hours post-challenge
# Outline: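 One-day-old chicks were challenged subcutaneously with 0.1 ml of a 10^-4 dilution of a 20-h tryptose broth culture of avian P. multocida. Compounds were then given by subcutaneous injection at 30 mg/kg, at 1 and 4 hours post-challenge.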
# [29] = test system: Staphylococcus epidermidis EPI1; assay: MIC, standard agar-dilution assay (Table IX); assay type: cell-based; details: Staphylococcus epidermidis EPI1; agar-dilution; read-out: MIC
# [30] = Titratable groups (first value)
Compound,MIC [1] [µg/mL],MIC [2] [µg/mL],MIC [3] [µg/mL],MIC [4] [µg/mL],MIC [5] [µg/mL],MIC [6] [µg/mL],MIC [7] [µg/mL],MIC [8] [µg/mL],MIC [9] [µg/mL],MIC [10] [µg/mL],MIC [11] [µg/mL],MIC [12] [µg/mL],pKa ([13]; Titratable groups),"pKa [13, 30]",MIC [14] [µg/mL],MIC [15] [µg/mL],MIC [16] [µg/mL],MIC [17] [µg/mL],MIC [18] [µg/mL],MIC [19] [µg/mL],also measured
"CCC1OC(=O)CC(O)C(C)C(OC2OC(C)C(O)C(N(C)C)C2O)C(CCN2CCCC2)CC(C)C(=O)C=CC(C)=CC1COC1OC(C)C(O)C(OC)C1OC (stereo not drawn) [Compound D1, 20-DH-DO-20-(pyrrolidin-1-yl)desmycosin]",128,0.78,12.5,50,6.25,6.25,12.5,6.25,0.39,6.25,16,32,9.5,7.9,> 128,> 128,16,2,16,0.5,"ED50 ([20]; C203, Oral): > 50 mg/kg; ED50 ([20]; C203, sc, Subcutaneous): 1.2 mg/kg; Number of Deaths/Number Treated [21]: 9/10; MIC [22]: 1 µg/mL; MIC [23]: 2 µg/mL; MIC [24]: 1 µg/mL; MIC [25]: 2 µg/mL; MIC [26]: 2 µg/mL; MIC [27]: 16 µg/mL; Number of Deaths/Number Treated [28]: 0/10; MIC [29]: 2 µg/mL"
"CCC1OC(=O)CC(O)C(C)C(OC2OC(C)C(O)C(N(C)C)C2O)C(CCN2CCCCC2)CC(C)C(=O)C=CC(C)=CC1COC1OC(C)C(O)C(OC)C1OC (stereo not drawn) [Compound D2, 20-DH-DO-20-(piperidin-1-yl)desmycosin]",16,0.78,12.5,> 50,6.25,25,3.12,3.12,0.78,6.25,16,16,9.1,7.8,> 128,> 128,16,0.5,16,0.25,"ED50 ([20]; C203, Oral): 50 mg/kg; ED50 ([20]; C203, sc, Subcutaneous): 0.9 mg/kg; Number of Deaths/Number Treated [21]: 5/10; MIC [22]: 0.5 µg/mL; MIC [23]: 1 µg/mL; MIC [24]: 0.25 µg/mL; MIC [25]: 0.5 µg/mL; MIC [26]: 0.5 µg/mL; MIC [27]: 16 µg/mL; Number of Deaths/Number Treated [28]: 0/10; MIC [29]: 1 µg/mL"
"CCC1OC(=O)CC(O)C(C)C(OC2OC(C)C(O)C(N(C)C)C2O)C(CCN2CCCCCC2)CC(C)C(=O)C=CC(C)=CC1COC1OC(C)C(O)C(OC)C1OC (stereo not drawn) [Compound D5, 20-DH-DO-20-(Hexahydroazepin-1-yl)desmycosin]",8,1.56,1.56,50,3.12,3.12,1.56,1.56,0.39,3.12,128,8,9.6,7.9,128,4,8,0.25,> 128,0.5,"ED50 ([20]; C203, Oral): 50 mg/kg; ED50 ([20]; C203, sc, Subcutaneous): 1.3 mg/kg; Number of Deaths/Number Treated [21]: 2/10; MIC [22]: 0.12 µg/mL; MIC [23]: 1 µg/mL; MIC [24]: 0.5 µg/mL; MIC [25]: 0.5 µg/mL; MIC [26]: 0.5 µg/mL; MIC [27]: 16 µg/mL; Number of Deaths/Number Treated [28]: 0/10; MIC [29]: 0.5 µg/mL"
